Data: US20160220569A1, “CDK4/6 Inhibitor Dosage Formulations For The Protection Of Hematopoietic Stem And Progenitor Cells During Chemotherapy” (G1 Therapeutics, Inc., priority 2015, published 2016)
Values joined by “and” are separate entries in the source; they are usually repeats but may differ in a detail not shown here. Equal entries are not always repeated.

Legend:
[1] = Red blood cell and neutrophil counts after single dose in dogs; format: in vivo; settings: out to 15 days
CDK4/6 = CDK4/6 inhibition in vitro and in vivo studies
Target lesions = assay: Tumor response, Compound 1 with etoposide and carboplatin; format: in vivo, human; parameters: Cycle 2 Target Lesion Sum / Cycle4 Target Lesion Sum / Cycle 6 Target Lesion Sum: unit not given here
Source text: As shown in FIG. 64 all 6 patients had at least partial responses during the course of 2 to 6 cycles of chemotherapy. Target lesions were summed and response tabulated as follows: […]

[2] = Compound 1 200 mg/m^2 followed by etoposide and carboplatin, individual subjects

## CN1CCN(c2ccc(Nc3ncc4cc5n(c4n3)C3(CCCCC3)CNC5=O)nc2)CC1 [Compound 1, 2′-((5-(4-methylpiperazin-1-yl)pyridin-2-yl)amino)-7′,8′-dihydro-6′H-spiro[cyclohexane-1,9′-pyrazino[1′,2′:1,5]pyrrolo[2,3-d]pyrimidin]-6′-one]
[1]
  effect on red blood cells and neutrophils: minimal
CDK4/6
  CDK4/6 inhibitor characterisation: highly potent and selective CDK4/6 inhibitor
Target lesions; [2]
  Cycle 2 Target Lesion Sum: 74 and 22 and 76 and 161 and 50 and 35
  Cycle4 Target Lesion Sum: 54 and 0 (2×) and 62 and 146
  Cycle 6 Target Lesion Sum: 47 and 0
Target lesions; Compound 1 200 mg/m^2 with etoposide and carboplatin, 2 to 6 cycles, 6 patients
  patients with at least partial responses: 6 patients
